Test results from article PMC6172315, “Relative Selectivity of Plant Cardenolides for Na^+/K^+-ATPases From the Monarch Butterfly and Non-resistant Insects” (Frontiers in Plant Science, 2018).
Entries after “also recorded” stand apart in the source; their conditions may differ. Where two headings read alike, the source gives them in different places.

Experiments:
[1] = biological target: D. plexippus-Na^+/K^+-ATPase (Danaus plexippus, UniProt K0G7C4); assay: In vitro inhibition assay of D. plexippus Na+/K+-ATPase (phosphate release); assay type: biochemical; conditions: for inhibition of D. plexippus Na^+/K^+-ATPase compared to ouabain: DP, F-test comparison of entire dose-response curves with ouabain; for IC50: read-out: IC50 D. plexippus- Na^+/K^+-ATPase, Na+/K+-ATPase extracted from butterfly brains; for fold difference between IC50 values, non-adapted (E. core/S. gregaria) vs adapted (D. plexippus) insect Na^+/K^+-ATPase: Figure 2, last number, S. gregaria values used for ouabain and digitoxigenin
D. plexippus-Na^+/K^+-ATPase, sequence (K0G7C4 1-1009): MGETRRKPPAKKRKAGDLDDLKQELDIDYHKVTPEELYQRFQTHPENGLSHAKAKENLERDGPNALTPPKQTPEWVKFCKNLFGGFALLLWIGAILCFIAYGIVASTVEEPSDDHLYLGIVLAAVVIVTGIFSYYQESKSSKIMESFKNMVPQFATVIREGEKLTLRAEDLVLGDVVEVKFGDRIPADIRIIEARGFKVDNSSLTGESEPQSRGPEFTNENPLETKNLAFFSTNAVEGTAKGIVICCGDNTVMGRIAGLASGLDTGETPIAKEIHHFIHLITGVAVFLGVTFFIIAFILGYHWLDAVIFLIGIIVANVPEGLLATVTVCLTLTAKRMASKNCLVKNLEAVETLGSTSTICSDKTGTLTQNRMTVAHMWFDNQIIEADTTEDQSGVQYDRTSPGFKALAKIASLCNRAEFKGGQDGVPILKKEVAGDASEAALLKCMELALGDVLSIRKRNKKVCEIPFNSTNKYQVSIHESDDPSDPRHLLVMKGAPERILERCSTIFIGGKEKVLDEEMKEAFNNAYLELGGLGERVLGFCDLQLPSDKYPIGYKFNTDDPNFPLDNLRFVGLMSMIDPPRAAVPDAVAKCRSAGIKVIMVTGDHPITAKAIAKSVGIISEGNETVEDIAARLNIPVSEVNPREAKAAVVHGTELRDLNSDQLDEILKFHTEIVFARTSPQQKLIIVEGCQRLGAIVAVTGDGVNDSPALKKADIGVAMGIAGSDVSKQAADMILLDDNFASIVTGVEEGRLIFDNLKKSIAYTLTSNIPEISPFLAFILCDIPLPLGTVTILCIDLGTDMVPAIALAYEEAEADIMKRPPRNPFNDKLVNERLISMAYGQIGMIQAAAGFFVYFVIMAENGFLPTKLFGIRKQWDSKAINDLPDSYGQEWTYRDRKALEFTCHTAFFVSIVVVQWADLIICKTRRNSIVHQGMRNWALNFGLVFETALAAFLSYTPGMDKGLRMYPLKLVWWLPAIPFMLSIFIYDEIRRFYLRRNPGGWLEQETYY
Description: (§1) Danaus plexippus was caught in the field or purchased; E. core and S. gregaria were obtained commercially, with additional E. core from a laboratory colony. […] Briefly, brains dissected from butterflies stored at -80°C or recta from locusts were homogenized (individually or pooled) with an all glass grinder (Wheaton) in deionized water, frozen at -80°C, freeze-dried, and stored frozen until use. For in vitro assays, lyophilisates were dissolved in water, sonicated in an ultrasonic bath, and centrifuged to remove undissolved matter. All cardiac glycosides were tested at least with three biological replicates of Na^+/K^+-ATPase (i.e., Na^+/K^+-ATPase from genetically different specimens or pools of specimens).
(§2) Means of duplicate determinations (i.e., technical replicates) were used as data points. In consequence, each data point of a dose–response curve is the mean of at least three biological replicates based on two technical replicates, each. […] Here, technical replicates collected on the same 96-well plate were averaged and used as data points.
(§3) Stock solutions of cardiac glycosides, as well as pregnane glycosides, were prepared from crystalline compounds in DMSO. While concentrations of all other compounds were based on mass, calactin, and calotropin stock solutions were adjusted with HPLC using digitoxin as a reference.
(§4) Pairwise statistical comparisons of dose-response curves were carried out using the “compare datasets” option in OriginPro, which is based on an F-Test evaluating if the two curves are identical. Correlation analyses using log10-transformed IC50 values was also carried out with OriginPro. […] To analyze relative selectivity without a reference, we also plotted the fold differences between the IC50 values of individual cardenolides for non-adapted and adapted insect Na^+/K^+-ATPase and compared them to mammalian (lamb) Na^+/K^+-ATPase (Figure 2).

E. core-Na^+/K^+-ATPase = E. core-Na^+/K^+-ATPase (Euploea core, UniProt A0A5C0C9F5); assay: In vitro inhibition assay of E. core Na+/K+-ATPase (phosphate release); assay type: biochemical; conditions: for inhibition of E. core Na^+/K^+-ATPase compared to ouabain: EC, F-test comparison of entire dose-response curves with ouabain; for IC50: read-out: IC50 E. core- Na^+/K^+-ATPase, Na+/K+-ATPase extracted from butterfly brains
E. core-Na^+/K^+-ATPase, sequence (A0A5C0C9F5 1-1013): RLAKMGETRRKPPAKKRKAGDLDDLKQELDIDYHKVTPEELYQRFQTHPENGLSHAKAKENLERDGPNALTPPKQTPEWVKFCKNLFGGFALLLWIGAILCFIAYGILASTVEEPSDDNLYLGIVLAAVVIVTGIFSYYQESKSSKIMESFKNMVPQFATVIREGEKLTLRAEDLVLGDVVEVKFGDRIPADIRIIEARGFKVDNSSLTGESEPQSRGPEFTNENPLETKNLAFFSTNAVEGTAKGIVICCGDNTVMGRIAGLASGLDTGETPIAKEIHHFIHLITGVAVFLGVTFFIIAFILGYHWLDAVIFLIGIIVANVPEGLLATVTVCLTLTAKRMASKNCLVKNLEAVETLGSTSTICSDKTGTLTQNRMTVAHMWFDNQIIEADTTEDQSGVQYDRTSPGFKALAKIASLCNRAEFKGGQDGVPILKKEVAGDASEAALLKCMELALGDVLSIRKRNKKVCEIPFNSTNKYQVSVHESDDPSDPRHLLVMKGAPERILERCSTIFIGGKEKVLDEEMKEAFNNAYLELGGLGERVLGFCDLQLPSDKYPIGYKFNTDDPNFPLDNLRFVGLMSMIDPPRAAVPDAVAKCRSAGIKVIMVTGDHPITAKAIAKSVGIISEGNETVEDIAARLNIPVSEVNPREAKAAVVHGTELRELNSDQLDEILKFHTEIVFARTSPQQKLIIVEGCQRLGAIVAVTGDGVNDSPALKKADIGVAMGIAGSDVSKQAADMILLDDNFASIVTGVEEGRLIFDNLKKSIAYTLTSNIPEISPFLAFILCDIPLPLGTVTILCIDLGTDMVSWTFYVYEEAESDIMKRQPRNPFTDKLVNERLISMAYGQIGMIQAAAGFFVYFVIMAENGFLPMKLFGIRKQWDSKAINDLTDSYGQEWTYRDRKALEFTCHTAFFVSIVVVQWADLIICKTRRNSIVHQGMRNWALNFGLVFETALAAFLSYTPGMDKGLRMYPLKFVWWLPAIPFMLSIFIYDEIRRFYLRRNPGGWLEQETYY
Description: as §1, §2, §3, §4

[2] = biological target: S. gregaria-Na^+/K^+-ATPase (Schistocerca gregaria, UniProt A0A8E5JSN5); assay type: biochemical
S. gregaria-Na^+/K^+-ATPase, sequence (A0A8E5JSN5 1-1039): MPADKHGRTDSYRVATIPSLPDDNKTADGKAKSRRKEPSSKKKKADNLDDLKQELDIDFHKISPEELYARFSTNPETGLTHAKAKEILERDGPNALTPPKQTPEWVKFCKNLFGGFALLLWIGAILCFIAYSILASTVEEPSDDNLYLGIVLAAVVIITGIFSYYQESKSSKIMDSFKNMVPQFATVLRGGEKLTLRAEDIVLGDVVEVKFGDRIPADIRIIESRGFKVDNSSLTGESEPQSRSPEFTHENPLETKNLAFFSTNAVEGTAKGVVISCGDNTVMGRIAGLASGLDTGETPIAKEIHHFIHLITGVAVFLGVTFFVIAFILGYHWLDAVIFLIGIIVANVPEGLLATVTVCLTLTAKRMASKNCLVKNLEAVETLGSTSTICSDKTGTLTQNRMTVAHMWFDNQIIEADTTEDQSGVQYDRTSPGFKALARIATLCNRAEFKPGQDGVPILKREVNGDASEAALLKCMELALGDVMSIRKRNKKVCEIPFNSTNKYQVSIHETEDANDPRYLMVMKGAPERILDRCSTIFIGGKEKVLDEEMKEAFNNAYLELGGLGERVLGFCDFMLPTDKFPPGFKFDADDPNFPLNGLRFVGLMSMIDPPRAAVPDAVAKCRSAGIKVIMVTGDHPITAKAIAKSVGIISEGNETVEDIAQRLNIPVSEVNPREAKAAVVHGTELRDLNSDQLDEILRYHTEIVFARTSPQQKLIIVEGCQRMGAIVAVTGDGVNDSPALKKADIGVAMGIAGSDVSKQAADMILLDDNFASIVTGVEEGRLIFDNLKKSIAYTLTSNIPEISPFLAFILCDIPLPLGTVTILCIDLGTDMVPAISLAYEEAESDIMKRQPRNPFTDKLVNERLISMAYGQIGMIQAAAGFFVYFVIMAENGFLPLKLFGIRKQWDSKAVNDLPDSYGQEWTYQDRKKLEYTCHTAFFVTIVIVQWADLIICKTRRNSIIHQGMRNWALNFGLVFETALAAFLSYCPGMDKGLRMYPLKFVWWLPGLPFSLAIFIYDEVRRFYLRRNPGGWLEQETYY
Description: as §1, §2, §3, §4

lamb Na^+/K^+-ATPase = assay: Fold differences of IC50 between lamb and insect Na+/K+-ATPases; assay type: biochemical; conditions: lamb IC50 inferred from ref Paula et al., 2005; for fold difference between IC50 values, lamb vs adapted insect (D. plexippus) Na^+/K^+-ATPase: Figure 2, first number; for fold difference between IC50 values, lamb vs non-adapted insect (E. core/S. gregaria) Na^+/K^+-ATPase: Figure 2, second number
Description: as §4

porcine Na^+/K^+-ATPase = assay: In vitro inhibition assay of porcine Na+/K+-ATPase; assay type: biochemical, pig; conditions: for inhibition of porcine Na^+/K^+-ATPase compared to ouabain: F-test comparison of dose-response curves with ouabain; for IC50: purified from pig brain, 0.01 U/ml in the assay
Description: Lyophilized Na^+/K^+-ATPase was dissolved in water to a concentration of 1 U/ml, stored at -80°C in single-use aliquots and diluted with H2O to 0.05 U/ml for use in the in vitro assay (final concentration in the assay 0.01 U/ml).
as §4

[3] = SG; F-test comparison of entire dose-response curves with ouabain
[4] = read-out: IC50 S. gregaria- Na^+/K^+-ATPase; Na+/K+-ATPase extracted from locust recta
[5] = Na+/K+-ATPase extracted from locust recta; read-out: IC50 S. gregaria- Na^+/K^+-ATPase

SMILES | inhibition of D. plexippus Na^+/K^+-ATPase compared to ouabain [1] | IC50 [1] | inhibition of E. core Na^+/K^+-ATPase compared to ouabain (E. core-Na^+/K^+-ATPase) | IC50 (E. core-Na^+/K^+-ATPase) | fold difference between IC50 values, non-adapted (E. core/S. gregaria) vs adapted (D. plexippus) insect Na^+/K^+-ATPase [1] | inhibition of S. gregaria Na^+/K^+-ATPase compared to ouabain [2, 3] | IC50 [2, 4] | IC50 [2, 5] | fold difference between IC50 values, lamb vs adapted insect (D. plexippus) Na^+/K^+-ATPase (lamb Na^+/K^+-ATPase) | fold difference between IC50 values, lamb vs non-adapted insect (E. core/S. gregaria) Na^+/K^+-ATPase (lamb Na^+/K^+-ATPase) | inhibition by glycoside relative to corresponding genin (strophanthidin) on D. plexippus-Na^+/K^+-ATPase ([1]; cymarin vs strophanthidin) | inhibition of porcine Na^+/K^+-ATPase compared to ouabain (porcine Na^+/K^+-ATPase) | IC50 (porcine Na^+/K^+-ATPase)
C[C@@H]1O[C@@H](O[C@H]2CC[C@]3(C=O)[C@H]4CC[C@]5(C)[C@@H](c6ccc(=O)oc6)CC[C@]5(O)[C@@H]4CC[C@]3(O)C2)[C@H](O)[C@H](O)[C@H]1O[C@@H]1O[C@H](CO)[C@@H](O)[C@H](O)[C@H]1O [hellebrin] | > ouabain; F2,6 = 1420.98, p < 0.001 | 0.842 µM | – | – | – | – | – | – | – | – | – | – | –
C[C@]12CC[C@H]3[C@@H](CC[C@]4(O)C[C@@H](O)CC[C@]34C=O)[C@@]1(O)CC[C@@H]2C1=CC(=O)OC1 [strophanthidin] | > ouabain; F2,6 = 9.41, p = 0.01 | 64.8 µM | – | – | – | – | – | – | – | – | – | – | –
C[C@@H]1C[C@@H](O)[C@]2(O)O[C@@H]3C[C@@]4(C=O)[C@@H](CC[C@@H]5[C@@H]4CC[C@]4(C)[C@@H](C6=CC(=O)OC6)CC[C@]54O)C[C@H]3O[C@@H]2O1 [calactin] | more potently than ouabain; also recorded: > ouabain; F2,7 = 4706.35, p < 0.001 | 2.15 µM | more potently than ouabain; also recorded: > ouabain; F2,7 = 496.50, p < 0.001 | 0.092 µM | 23 x | – | – | – | – | – | – | – | –
C[C@]12CC[C@H](O)C[C@H]1CC[C@@H]1[C@@H]2C[C@@H](O)[C@]2(C)[C@@H](C3=CC(=O)OC3)CC[C@]12O [digoxigenin] | < ouabain; F2,6 = 30.1, p < 0.001 | 379 µM | – | – | – | < ouabain; F2,6 = 151.91, p < 0.001 | 11.8 µM | – | – | – | – | – | –
CC12CC(O)C3C(CCC4(O)CC(O)CC(O)C34CO)C1(O)CCC2C1=CC(=O)OC1 (stereo not shown) [ouabagenin] | < ouabain; F2,6 = 80.0, p < 0.001 | 841 µM | – | – | 41 x | < ouabain; F2,6 = 201.2, p < 0.001 | – | 20.4 µM | 1821 x | 44 x | – | – | –
C[C@]12CC[C@H](O)C[C@H]1CC[C@@H]1[C@@H]2CC[C@]2(C)[C@@H](C3=CC(=O)OC3)[C@@H](O)C[C@]12O [gitoxigenin] | – | 256 µM | – | – | 7 x | much lower extent compared to ouabain | – | 37.8 µM | 1633 x | 241 x | – | – | –
C[C@@H]1C[C@H](O)[C@]2(O)O[C@@H]3C[C@@]4(C=O)[C@@H](CC[C@@H]5[C@@H]4CC[C@]4(C)[C@@H](C6=CC(=O)OC6)CC[C@]54O)C[C@H]3O[C@@H]2O1 [calotropin] | > ouabain; F2,7 = 154.4, p < 0.001 | 5.36 µM | > ouabain; F2,7 = 54.31, p < 0.001 | 0.323 µM | 17 x | – | – | – | – | – | – | – | –
CO[C@H]1C[C@H](O[C@H]2CC[C@]3(C=O)[C@H]4CC[C@]5(C)[C@@H](C6=CC(=O)OC6)CC[C@]5(O)[C@@H]4CC[C@]3(O)C2)O[C@H](C)[C@H]1O [cymarin] | > ouabain; F2,6 = 514.53, p < 0.001 | 6.99 µM | – | – | 21 x | > ouabain; F2,6 = 6.37, p = 0.03 | – | 0.334 µM | 36 x | 2 x | ninefold | – | –
C[C@]12CC[C@H](O)C[C@H]1CC[C@@H]1[C@@H]2CC[C@]2(C)[C@@H](C3=CC(=O)OC3)CC[C@]12O [digitoxigenin] | > ouabain; F2,6 = 54.05, p < 0.001 | 24.8 µM | < ouabain; F2,6 = 180.27, p < 0.001 | 4.12 µM | – | < ouabain; F2,6 = 17.5, p = 0.003 | 2.73 µM | – | – | – | – | – | –
C[C@]12CC[C@H](O[C@@H]3O[C@H](CO)[C@@H](O)[C@H](O)[C@H]3O)C[C@@H]1CC[C@@H]1[C@@H]2CC[C@]2(C)[C@@H](C3=CC(=O)OC3)CC[C@]12O [desglucouzarin] | strongly inhibitory effect; also recorded: > ouabain; F2,7 = 455.90, p < 0.001 | 6.42 µM | nearly the same inhibitory effect as ouabain | 0.62 µM | 10 x | – | – | – | – | – | – | more strongly than ouabain | 0.268 µM
C[C@]12CC[C@H](O[C@@H]3O[C@H](CO[C@@H]4O[C@H](CO)[C@@H](O)[C@H](O)[C@H]4O)[C@@H](O)[C@H](O)[C@H]3O)C[C@@H]1CC[C@@H]1[C@@H]2CC[C@]2(C)[C@@H](C3=CC(=O)OC3)CC[C@]12O [uzarin] | substantially stronger inhibition than ouabain; also recorded: > ouabain; F2,7 = 70.04, p < 0.001 | 18.8 µM | far weaker inhibition than ouabain; also recorded: < ouabain; F2,7 = 39.97, p < 0.001 | 2.91 µM | 6 x | – | – | – | – | – | – | not different from the effect of ouabain | 0.452 µM
C[C@H]1O[C@@H](O[C@H]2[C@@H](O)C[C@H](O[C@H]3[C@@H](O)C[C@H](O[C@H]4CC[C@@]5(C)[C@H](CC[C@@H]6[C@@H]5CC[C@]5(C)[C@@H](C7=CC(=O)OC7)CC[C@]65O)C4)O[C@@H]3C)O[C@@H]2C)C[C@H](O)[C@@H]1O [digitoxin, reference compound] | > ouabain; F2,6 = 116.84, p < 0.001 | 14.8 µM | – | – | – | = ouabain; F2,6 = 5.07, p = 0.05 | 1.37 µM | – | – | – | – | – | –
CC(=O)O[C@H]1C[C@H](O[C@H]2[C@@H](O)C[C@H](O[C@H]3[C@@H](O)C[C@H](O[C@H]4CC[C@@]5(C)[C@H](CC[C@@H]6[C@@H]5C[C@@H](O)[C@]5(C)[C@@H](C7=CC(=O)OC7)CC[C@]65O)C4)O[C@@H]3C)O[C@@H]2C)O[C@H](C)[C@H]1O[C@@H]1O[C@H](CO)[C@@H](O)[C@H](O)[C@H]1O [lanatoside C, reference compound] | < ouabain; F2,6 = 17.23, p = 0.003 | 644 µM | – | – | 52 x | < ouabain; F2,6 = 82.96, p < 0.001 | – | 12.4 µM | 1564 x | 30 x | – | – | –
